From US12018033B2, “Inhibitors of protein arginine deiminases” (Forward Therapeutics, Inc., priority 2018, dated 2024) come the findings set out here.

The target in this test is T1, Recombinant human PAD4 (2-663) (Homo sapiens, UniProt Q9UM07).
T1 construct: Recombinant human PAD4 (2-663) was expressed in E. coli; made in house; host or cells: E. coli
The test can be described thus: PAD4 Inhibition Assay. It is filed as biochemical. The following applies: 60 mins pre-incubation at RT; substrate BAEE with CaCl2; fluorescent signal (λex 405/λem 460). On the procedure:
Protein: Recombinant human PAD4 (2-663) was expressed in E. coli as an N-terminal Strep-tag and C-terminal 6-his tag fusion protein. Protein was purified using Strep-tactin resin followed by size exclusion chromatography. Tags were not removed during purification. Activity of the protein was determined using ammonia quantification assay.
PAD4 enzyme (10 μL) was diluted to concentration of 75 nM in assay buffer A (100 mM HEPES, pH 8, 50 mM NaCl, 2 mM DTT, 0.6 mg/mL BSA and 0.5% DMSO) and added to wells containing 10 μL of various concentrations of test compound, or DMSO vehicle in buffer A with 1.5% final DMSO concentration in a Corning high volume 384 well black plate. Following 60 mins pre-incubation at RT with gentle shaking, the reaction was initiated by the addition of 10 μL of substrate buffer containing 3 mM N-α-benzoyl-L-arginine ethyl ester (BAEE) and 600 μM CaCl2) in assay buffer A. The reaction was stopped after 60 mins with the addition of 15 μL stop/detection buffer containing 7.5 mM phthalaldehyde, 50 mM EDTA and 7.5 mM DTT in assay buffer A. Quenched reactions were incubated at RT for 45 mins before measuring fluorescent signal (λex 405/λem 460) on an Envision plate reader (Perkin Elmer Life Sciences, Waltham, Mass., USA).

T1 sequence (Q9UM07 2-663): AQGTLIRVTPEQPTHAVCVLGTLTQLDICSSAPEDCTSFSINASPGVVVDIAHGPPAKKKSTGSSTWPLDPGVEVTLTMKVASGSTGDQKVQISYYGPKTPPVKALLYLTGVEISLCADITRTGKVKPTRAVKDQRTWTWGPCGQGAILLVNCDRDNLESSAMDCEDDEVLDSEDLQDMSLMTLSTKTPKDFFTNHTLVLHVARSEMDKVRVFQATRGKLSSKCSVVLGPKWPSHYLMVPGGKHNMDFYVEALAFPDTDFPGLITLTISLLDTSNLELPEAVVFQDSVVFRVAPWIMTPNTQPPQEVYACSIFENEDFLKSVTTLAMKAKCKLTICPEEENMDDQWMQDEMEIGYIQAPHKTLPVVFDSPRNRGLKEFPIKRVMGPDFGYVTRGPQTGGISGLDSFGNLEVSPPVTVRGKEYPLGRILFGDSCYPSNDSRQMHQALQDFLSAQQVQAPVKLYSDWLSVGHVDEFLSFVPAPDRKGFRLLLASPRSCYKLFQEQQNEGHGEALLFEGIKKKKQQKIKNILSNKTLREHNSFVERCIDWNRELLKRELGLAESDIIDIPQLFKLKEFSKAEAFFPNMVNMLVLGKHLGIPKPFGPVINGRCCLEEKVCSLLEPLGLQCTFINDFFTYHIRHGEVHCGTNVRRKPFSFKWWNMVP

Usually IC50 stands for the concentration needed to halve the response being measured. With `N[C@@H]1CCN(C(=O)c2cc3cc(F)c(Cl)c(F)c3[nH]2)C1` [Example 4, (R)-(3-Aminopyrrolidin-1-yl)(6-chloro-5,7-difluoro-1H-indol-2-yl)methanone], the 50% inhibitory concentration (IC50) fell in the range of 1 to 10 µM.

In the case of `N[C@@H]1CCN(C(=O)c2cc3cc(Cl)cc(F)c3[nH]2)C1` [Example 2, (R)-(3-Aminopyrrolidin-1-yl)(5-chloro-7-fluoro-1H-indol-2-yl)methanone], the IC50 was at most 1 µM.

As to `N[C@H]1CCN(C(=O)c2cc3cc(Cl)c(F)c(F)c3[nH]2)C1` [Example 27, (S)-(3-Aminopyrrolidin-1-yl)(5-chloro-6,7-difluoro-1H-indol-2-yl)methanone], the IC50 was at most 1 µM.

For `N[C@@H]1CCN(C(=O)c2cc3cc(F)c(F)cc3[nH]2)C1` [Example 50, (R)-(3-Aminopyrrolidin-1-yl)(5,6-difluoro-1H-indol-2-yl)methanone], the IC50 lay within 10 to 100 µM.

`N[C@H]1CN(C(=O)c2cc3cc(Cl)c(F)c(F)c3[nH]2)CC[C@@H]1F` [Example 42, ((3S,4S)-3-Amino-4-fluoropiperidin-1-yl)(5-chloro-6,7-difluoro-1H-indol-2-yl)methanone]: the half-inhibitory concentration (IC50) lay in the range of 10 to 100 µM.

For the compound `N[C@@H]1CCN(C(=O)c2cc3ccc(Cl)cc3[nH]2)C1` [Example 46, (R)-(3-Aminopyrrolidin-1-yl)(6-chloro-1H-indol-2-yl)methanone], the IC50 lay in the range of 1 to 10 µM.

As to `O=C(c1cc2cc(Cl)c(F)c(F)c2[nH]1)N1CC[C@H]2CNC[C@H]21` [Example 57, (5-chloro-6,7-difluoro-1H-indol-2-yl)((3aS,6aS)-hexahydropyrrolo[3,4-b]pyrrol-1(2H)-yl)methanone], the IC50 lay in the range of 1 to 10 µM.

Regarding `O=C(c1cc2cc(Cl)c(F)c(F)c2[nH]1)N1CC[C@@H]2CNC[C@@H]21` [Example 58, (5-chloro-6,7-difluoro-1H-indol-2-yl)((3aR,6aR)-hexahydropyrrolo[3,4-b]pyrrol-1(2H)-yl)methanone], the IC50 lay within 10 to 100 µM.

With `O=C(N[C@H]1CNC[C@@H]1O)c1cc2cc(Cl)c(F)c(F)c2[nH]1` [Example 18, 5-Chloro-6,7-difluoro-N-((3S,4S)-4-hydroxypyrrolidin-3-yl)-1H-indole-2-carboxamide], the IC50 was 10 to 100 µM.

In the case of `N[C@H]1CN(C(=O)c2cc3cc(Br)c(F)c(F)c3[nH]2)C[C@H]1O` [Example 67, ((3S,4R)-3-amino-4-hydroxypyrrolidin-1-yl)(5-bromo-6,7-difluoro-1H-indol-2-yl)methanone], the IC50 was 1 to 10 µM.

Take `C[C@H]1CCNC[C@@H]1NC(=O)c1cc2cc(Cl)c(F)c(F)c2[nH]1` [Example 41, 5-Chloro-6,7-difluoro-N-((3R,4S)-4-methylpiperidin-3-yl)-1H-indole-2-carboxamide]: the IC50 lay in the range of 10 to 100 µM.

`N[C@H]1CN(C(=O)c2cc3cc(Cl)c(F)c(F)c3[nH]2)C[C@H]1O` [Example 32, ((3S,4R)-3-Amino-4-hydroxypyrrolidin-1-yl)(5-chloro-6,7-difluoro-1H-indol-2-yl)methanone]: the IC50 lay within 1 to 10 µM.

Take `O=C(N[C@@H]1CNC[C@@H]1O)c1cc2cc(Cl)c(F)c(F)c2[nH]1` [Example 16, 5-Chloro-6,7-difluoro-N-((3R,4S)-4-hydroxypyrrolidin-3-yl)-1H-indole-2-carboxamide]: the half-inhibitory concentration (IC50) was 1 to 10 µM.

Consider `O=C(N[C@H]1CNC[C@H]1O)c1cc2cc(Cl)c(F)c(F)c2[nH]1` [Example 17, 5-Chloro-6,7-difluoro-N-((3S,4R)-4-hydroxypyrrolidin-3-yl)-1H-indole-2-carboxamide], for which the half-inhibitory concentration (IC50) was in the range of 10 to 100 µM.

Turning to `C[C@@H](CN)N(C)C(=O)c1cc2cc(Cl)c(F)c(F)c2[nH]1` [Example 64, (S)-N-(1-aminopropan-2-yl)-5-chloro-6,7-difluoro-N-methyl-1H-indole-2-carboxamide], the 50% inhibitory concentration (IC50) fell in the range of 1 to 10 µM.

`N[C@@H]1CCN(C(=O)c2cc3cc(Br)c(F)c(F)c3[nH]2)C1` [Example 5, (R)-(3-Aminopyrrolidin-1-yl)(5-bromo-6,7-difluoro-1H-indol-2-yl)methanone]: the half-inhibitory concentration (IC50) is at most 1 µM.

Consider `O=C(N[C@@H]1CNC[C@H]1O)c1cc2cc(Cl)c(F)c(F)c2[nH]1` [Example 15, 5-Chloro-6,7-difluoro-N-((3R,4R)-4-hydroxypyrrolidin-3-yl)-1H-indole-2-carboxamide], for which the IC50 lay within 1 to 10 µM.

Take `O=C(NC[C@@H]1CCNC1)c1cc2cc(Cl)c(F)c(F)c2[nH]1` [Example 63, (R)-5-chloro-6,7-difluoro-N-(pyrrolidin-3-ylmethyl)-1H-indole-2-carboxamide]: the IC50 lay within 10 to 100 µM.

Regarding `C[C@H](CN)NC(=O)c1cc2cc(Cl)c(F)c(F)c2[nH]1` [Example 21, (R)-N-(1-Aminopropan-2-yl)-5-chloro-6,7-difluoro-1H-indole-2-carboxamide], the IC50 lay in the range of 10 to 100 µM.

Take `N[C@@H]1CCN(C(=O)c2cc3cc(Cl)ccc3[nH]2)C1` [Example 8, (R)-(3-Aminopyrrolidin-1-yl)(5-chloro-1H-indol-2-yl)methanone]: the IC50 lay in the range of 1 to 10 µM.

In the case of `N[C@@H]1CCN(C(=O)c2cc3cc(Cl)c(F)c(F)c3[nH]2)C1` [Example 1, (R)-(3-Aminopyrrolidin-1-yl)(5-chloro-6,7-difluoro-1H-indol-2-yl)methanone], the IC50 is at most 1 µM.

As for `O=C(c1cc2cc(Cl)c(F)c(F)c2[nH]1)N1C[C@H]2CNC[C@H]2C1` [Example 59, (5-chloro-6,7-difluoro-1H-indol-2-yl)((3aR,6aS)-hexahydropyrrolo[3,4-c]pyrrol-2(1H)-yl)methanone], the IC50 was 10 to 100 µM.

As to `N[C@@H]1CCN(C(=O)c2cc3cc(Cl)c(Cl)cc3[nH]2)C1` [Example 44, (R)-(3-Aminopyrrolidin-1-yl)(5,6-dichloro-1H-indol-2-yl)methanone], the IC50 was in the range of 1 to 10 µM.

Turning to `N[C@@H]1CCCN(C(=O)c2cc3cc(Cl)c(F)c(F)c3[nH]2)C1` [Example 38, (R)-(3-Aminopiperidin-1-yl)(5-chloro-6,7-difluoro-1H-indol-2-yl)methanone], the IC50 fell in the range of 10 to 100 µM.

For `O=C(NC[C@H]1CCNC1)c1cc2cc(Cl)c(F)c(F)c2[nH]1` [Example 62, (S)-5-chloro-6,7-difluoro-N-(pyrrolidin-3-ylmethyl)-1H-indole-2-carboxamide], the IC50 is 10 to 100 µM.

Turning to `N[C@H]1CNC[C@@H]1NC(=O)c1cc2cc(Cl)c(F)c(F)c2[nH]1` [Example 30, N-((3S,4S)-4-Aminopyrrolidin-3-yl)-5-chloro-6,7-difluoro-1H-indole-2-carboxamide], the IC50 was in the range of 10 to 100 µM.

With `N[C@H]1CN(C(=O)c2cc3cc(Cl)c(F)c(F)c3[nH]2)C[C@@H]1F` [Example 37, ((3S,4S)-3-Amino-4-fluoropyrrolidin-1-yl)(5-chloro-6,7-difluoro-1H-indol-2-yl)methanone], the half-inhibitory concentration (IC50) is 1 to 10 µM.

Regarding `NC1CN(C(=O)c2cc3cc(Cl)c(F)c(F)c3[nH]2)C1` [Example 24, (3-Aminoazetidin-1-yl)(5-chloro-6,7-difluoro-1H-indol-2-yl)methanone], the IC50 fell in the range of 1 to 10 µM.

On to `N[C@@H]1CCN(C(=O)c2cc3cc(Cl)cc(Cl)c3[nH]2)C1` [Example 45, (R)-(3-Aminopyrrolidin-1-yl)(5,7-dichloro-1H-indol-2-yl)methanone], for which the 50% inhibitory concentration (IC50) fell in the range of 10 to 100 µM.
